Assay [1] addresses T1, Estrogen receptor beta (Homo sapiens, UniProt Q92731).
In another assay the target is Protein Tat (Human immunodeficiency virus type 1 group M subtype B (isolate HXB2)(HIV-1), UniProt P04608). Format: functional.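 Also: tat binding to TAR RNA read out by fluorescence polarization.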
Assay [2] concerns the target Ubiquitin carboxyl-terminal hydrolase BAP1 (Homo sapiens, UniProt Q92560). The assay can be described thus: inhibition of BAP1 ubiquitin hydrolase activity – biochemical, dose response (AID 714). Format: functional.
Assay [3] concerns the target T1, Estrogen receptor beta. The assay can be described thus: blockers of SRC-3 recruitment to ERβ – biochemical, ELISA, streptavidin-HRP readout, orthogonal assay, confirmation (AID 1060). (ELISA stands for enzyme-linked immunosorbent assay.)
In another assay the target is Heat shock protein HSP90 (Homo sapiens, UniProt P07900+P08238). Briefly: Hsp90 blockade concentration-response – dose response (AID 712). Format: functional.
A further assay has as its target Cytochrome P450 3A4 (Homo sapiens, UniProt P08684).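 Also: CYP3A4 tested as one member of a cytochrome P450 panel screen.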
Assay [4] in a line: P. falciparum Dd2 growth inhibitors, dose response, SYBR Green, cherry-picked samples (AID 1159567). Format: functional, cell-based.
Assay [5] in a line: toxicity to human hepatoma HepG2 cells – cell-based, cherry-picked samples, cytotoxicity control, dose response (AID 1159577). It counts as functional.
Assay [6] is described as follows: Dd2 parasite growth inhibition in erythrocytes – SYBR Green, dry powder samples, set 9, dose response (AID 1159568). Format: functional, cell-based.
A short description of assay [7]: Dd2 parasite growth inhibition in erythrocytes – SYBR Green, dry powder samples, set 4, dose response (AID 1159572). Format: functional, cell-based.
The target of assay [8] is Metabotropic glutamate receptor 7 (Homo sapiens, UniProt Q14831). The assay can be described thus: potentiation of glutamate EC20 at mGlu7 – cell-based, calcium mobilization, Galpha15, dose response (AID 743384). Format: functional.
Chain of Metabotropic glutamate receptor 7 (Q14831 whole entry): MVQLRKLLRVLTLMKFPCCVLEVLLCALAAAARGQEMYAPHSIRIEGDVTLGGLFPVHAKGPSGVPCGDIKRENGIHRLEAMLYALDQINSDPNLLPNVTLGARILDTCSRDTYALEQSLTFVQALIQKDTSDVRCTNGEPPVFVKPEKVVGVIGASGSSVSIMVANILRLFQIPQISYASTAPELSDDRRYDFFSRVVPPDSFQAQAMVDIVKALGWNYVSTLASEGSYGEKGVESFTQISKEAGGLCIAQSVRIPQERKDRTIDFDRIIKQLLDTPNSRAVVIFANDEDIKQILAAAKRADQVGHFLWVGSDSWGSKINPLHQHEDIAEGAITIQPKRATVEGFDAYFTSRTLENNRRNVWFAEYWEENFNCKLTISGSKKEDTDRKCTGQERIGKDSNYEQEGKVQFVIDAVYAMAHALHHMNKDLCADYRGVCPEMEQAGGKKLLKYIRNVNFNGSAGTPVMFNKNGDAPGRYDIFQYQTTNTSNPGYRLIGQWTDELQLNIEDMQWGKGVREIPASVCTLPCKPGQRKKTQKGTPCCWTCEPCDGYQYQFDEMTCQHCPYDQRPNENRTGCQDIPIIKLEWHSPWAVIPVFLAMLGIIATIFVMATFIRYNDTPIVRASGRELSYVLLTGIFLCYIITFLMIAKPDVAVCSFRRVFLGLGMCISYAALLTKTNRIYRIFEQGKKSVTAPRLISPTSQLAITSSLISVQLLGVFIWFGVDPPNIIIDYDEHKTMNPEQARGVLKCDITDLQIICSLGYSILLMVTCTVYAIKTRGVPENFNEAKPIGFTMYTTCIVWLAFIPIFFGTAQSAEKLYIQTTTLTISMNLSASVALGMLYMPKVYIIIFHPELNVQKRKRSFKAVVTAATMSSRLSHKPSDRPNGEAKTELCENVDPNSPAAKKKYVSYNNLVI
A short description of assay [9]: growth inhibition of PfATP4-mutant resistant parasites – NITD609-resistant line, SYBR Green, dry powder, dose response (AID 1159571).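 Also: parasites synchronized at ring stage by sorbitol before testing.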 Format: functional, cell-based.
Assay [10] in a line: antimalarial activity against Dd2 parasites – SYBR Green fluorescence, erythrocytes, dry powder, set 2, dose response (AID 1159574). It counts as functional, cell-based.
The nature of assay [11]: growth inhibition of yeast DHODH-expressing 3D7 parasites – SYBR Green, dry powder samples, dose response (AID 1159570).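 Also: parasite growth measured after 72 hours of compound exposure.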 It counts as functional, cell-based.
Assay [12] in a line: Dd2 malaria parasite growth inhibition potency – SYBR Green, dry powder samples, dose response (AID 1159566).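 Also: potency for growth inhibition with lower SYBR green DNA signal.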 It counts as functional, cell-based.
Assay [13] can be described thus: toxicity to human HepG2 hepatoma cells – cell-based, plate reader, dry powder samples, cytotoxicity control, dose response (AID 1159569).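 Also: inhibitor potency with signal falling toward the positive control level.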 Format: functional.
Assay [14] is described as follows: Potency on glucagon-like peptide 1 release, dose-response in NCI-H716 cell line, half maximal inhibitory concentration (AID 1117344). Format: functional, cell-based.
A short description of assay [15]: glucagon-like peptide-1 release potency in STC-1, concentration-response, half-maximal inhibitory concentration in the STC-1 line (AID 1117345). It counts as functional, cell-based.

The source made the active and inactive calls.

Consider 7 molecules from ChEMBL document CHEMBL1201862, “PubChem BioAssay data set” (2004).

The term IC50 denotes the concentration needed to halve the response being measured. Usually AC50 stands for the concentration at which the activity in the assay is half-maximal. One may read the EC50 as the concentration giving half of the maximal effect.

T1 sequence (Q92731 whole entry): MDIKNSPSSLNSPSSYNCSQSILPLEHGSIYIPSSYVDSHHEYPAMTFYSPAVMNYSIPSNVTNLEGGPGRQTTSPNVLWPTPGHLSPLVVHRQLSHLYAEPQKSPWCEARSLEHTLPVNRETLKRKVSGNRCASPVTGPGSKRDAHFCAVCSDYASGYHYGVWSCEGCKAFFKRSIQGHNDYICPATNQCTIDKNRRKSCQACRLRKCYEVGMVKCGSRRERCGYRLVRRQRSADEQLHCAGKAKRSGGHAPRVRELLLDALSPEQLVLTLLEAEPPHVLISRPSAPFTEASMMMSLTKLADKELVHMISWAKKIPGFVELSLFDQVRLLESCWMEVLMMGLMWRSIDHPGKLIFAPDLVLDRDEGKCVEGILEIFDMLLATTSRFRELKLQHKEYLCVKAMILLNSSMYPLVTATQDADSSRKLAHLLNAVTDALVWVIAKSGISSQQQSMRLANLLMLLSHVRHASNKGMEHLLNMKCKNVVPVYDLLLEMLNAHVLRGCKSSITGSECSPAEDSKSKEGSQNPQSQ
Chain of Cytochrome P450 3A4 (P08684 whole entry): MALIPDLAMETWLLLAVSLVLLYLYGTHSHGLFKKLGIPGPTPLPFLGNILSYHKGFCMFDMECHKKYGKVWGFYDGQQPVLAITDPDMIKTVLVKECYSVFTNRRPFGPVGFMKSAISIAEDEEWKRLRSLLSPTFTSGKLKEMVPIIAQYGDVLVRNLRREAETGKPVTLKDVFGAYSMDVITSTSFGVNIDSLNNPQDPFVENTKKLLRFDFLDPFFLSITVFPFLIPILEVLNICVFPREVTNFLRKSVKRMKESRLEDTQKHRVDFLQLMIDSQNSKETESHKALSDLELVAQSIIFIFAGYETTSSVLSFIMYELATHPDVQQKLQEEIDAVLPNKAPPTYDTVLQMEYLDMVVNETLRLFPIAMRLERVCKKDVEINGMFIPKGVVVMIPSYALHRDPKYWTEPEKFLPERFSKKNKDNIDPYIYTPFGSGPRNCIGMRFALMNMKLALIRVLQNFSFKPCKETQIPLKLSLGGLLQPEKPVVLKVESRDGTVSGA
Chain of Ubiquitin carboxyl-terminal hydrolase BAP1 (Q92560 whole entry): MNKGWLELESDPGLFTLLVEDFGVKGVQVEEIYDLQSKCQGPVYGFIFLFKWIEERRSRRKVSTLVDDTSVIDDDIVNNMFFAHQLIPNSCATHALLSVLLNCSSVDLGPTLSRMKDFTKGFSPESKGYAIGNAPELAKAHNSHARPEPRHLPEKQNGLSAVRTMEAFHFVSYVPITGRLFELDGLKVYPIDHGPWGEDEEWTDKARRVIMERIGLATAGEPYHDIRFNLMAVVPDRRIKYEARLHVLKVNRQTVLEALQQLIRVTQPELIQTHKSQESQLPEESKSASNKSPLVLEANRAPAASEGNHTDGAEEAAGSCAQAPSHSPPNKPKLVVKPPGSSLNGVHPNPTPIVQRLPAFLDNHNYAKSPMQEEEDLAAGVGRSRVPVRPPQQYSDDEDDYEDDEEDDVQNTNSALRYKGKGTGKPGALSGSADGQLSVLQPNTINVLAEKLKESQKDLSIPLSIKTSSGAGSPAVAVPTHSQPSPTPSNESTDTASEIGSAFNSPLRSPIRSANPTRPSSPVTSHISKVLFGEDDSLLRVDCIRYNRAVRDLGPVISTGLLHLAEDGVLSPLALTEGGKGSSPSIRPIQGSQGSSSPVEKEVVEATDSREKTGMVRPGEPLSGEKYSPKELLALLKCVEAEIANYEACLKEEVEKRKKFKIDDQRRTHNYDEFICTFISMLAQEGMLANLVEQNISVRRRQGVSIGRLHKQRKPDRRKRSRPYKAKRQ
Chain of Protein Tat (P04608 whole entry): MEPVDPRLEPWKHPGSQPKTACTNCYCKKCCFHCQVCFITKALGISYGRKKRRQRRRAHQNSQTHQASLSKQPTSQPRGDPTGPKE

For `Cc1ccc(-c2nc3s/c(=C\c4ccco4)c(=O)n3n2)cc1`, the IC50 at Estrogen receptor beta [1] is > 50 µM (not active); on Protein Tat, > 100 µM (active); in assay [2] it was 22.6 µM (active); against Estrogen receptor beta [3] it was > 50 µM (not active).

Consider `CN(c1ccccc1)c1ccc(/C=c2\s/c(=C(/C#N)C(=O)C(C)(C)C)n(Cc3ccco3)c2=O)cc1`, for which, on Heat shock protein HSP90, the half-inhibitory concentration (IC50) was determined as 13.4314 µM. In addition, the concentration at half-maximal activity (AC50) at Cytochrome P450 3A4 is 6.31 µM (inconclusive).

For `COc1ccccc1NC(=O)N1C[C@@H]2N[C@H](C1)[C@@H]2c1ccc(/C=C/c2ccccc2)cc1`, the values for the half-maximal activity concentration (AC50) in [4], in assay [5] and in assay [6] were 1.96 µM (active), 9.74 µM (active) and 8.73 µM (active), respectively.

For the molecule `CCC(=O)N1CCC2(CC1)CN(C(C)=O)[C@@H](CO)c1[nH]c3cc(OC)ccc3c12`, the AC50 in assay [7] is 20.1 µM (active).

On to `COC(=O)c1ccc(-n2c(C)cc(C(=O)CSCc3cccc(C)c3)c2C)cc1`, for which, in assay [8], the EC50 is 10 µM (active).

On to `COc1ccc(S(=O)(=O)N(C)C[C@@H]2OCc3ccccc3-c3c(n(C)c4ccccc34)C(=O)N([C@@H](C)CO)C[C@@H]2C)cc1`, for which the half-maximal activity concentration (AC50) in [4] is 0.689 µM (active); in assay [9], 0.115 µM (active); in [10], 0.853 µM (active); in assay [11], 0.126 µM (active); in assay [12], 0.0794 µM (active); in [13], 84.3 µM (active).

`Cc1cc(O)c(C(C)C)cc1Cl` [CHLOROTHYMOL]: the results for the IC50 in [14] and in assay [15] were 26.5 µM (inactive) and 14.1 µM (inactive), respectively.
